Results from the supplement of paper PMC8960247.
Counter-ions that a name gives are not always drawn. ± gives the standard error.

Assays:
621-102 (TSC2-deficient) = test: relative viability vs DMSO; higher = less cytotoxic; conditions: serum: 10% FBS, 72 h
621-103 (TSC2-rescued) = test: as above; conditions: serum: 10% FBS, 72 h
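Also: immortalized renal angiomyolipoma cells stably carrying empty vector or TSC2, dosed in 384-well plates in DMEM, viability normalized to vehicle-treated wells within each plate.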

| SMILES | relative viability (621-102 (TSC2-deficient); 0.0001 µM) [%] | relative viability (621-102 (TSC2-deficient); 0.001 µM) [%] | relative viability (621-102 (TSC2-deficient); 0.01 µM) [%] | relative viability (621-102 (TSC2-deficient); 0.1 µM) [%] | relative viability (621-102 (TSC2-deficient); 1 µM) [%] | relative viability (621-102 (TSC2-deficient); 10 µM) [%] | relative viability (621-103 (TSC2-rescued); 0.0001 µM) [%] | relative viability (621-103 (TSC2-rescued); 0.001 µM) [%] | relative viability (621-103 (TSC2-rescued); 0.01 µM) [%] | relative viability (621-103 (TSC2-rescued); 0.1 µM) [%] | relative viability (621-103 (TSC2-rescued); 1 µM) [%] | relative viability (621-103 (TSC2-rescued); 10 µM) [%] |
| --- | --- | --- | --- | --- | --- | --- | --- | --- | --- | --- | --- | --- |
| CO[C@H]1C[C@@H]2CC[C@@H](C)[C@@](O)(O2)C(=O)C(=O)N2CCCC[C@H]2C(=O)O[C@H]([C@H](C)C[C@@H]2CC[C@@H](O)[C@H](OC)C2)CC(=O)[C@H](C)/C=C(\C)[C@@H](O)[C@@H](OC)C(=O)[C@H](C)C[C@H](C)/C=C/C=C/C=C/1C [Rapamycin (Sirolimus)] | 37 ± 2.8 | 43.2 ± 5 | 38.8 ± 3.9 | 41.6 ± 2.9 | 44.6 ± 5.5 | 44.8 ± 2 | 80.829 ± 0.071 | 63.1 ± 2.6 | 70 ± 2.1 | 78.1 ± 1.8 | 71.36 ± 0.67 | 68.1 ± 2.8 |
| CNCCC(Oc1ccc(C(F)(F)F)cc1)c1ccccc1 (stereo unspecified) [Fluoxetine HCl] | 101.3 ± 0.38 | 100 ± 1.8 | 109 ± 2.5 | 107 ± 2.1 | 99.3 ± 1.1 | 86.9 ± 2.2 | 100 ± 4.3 | 109 ± 2 | 106 ± 1.8 | 99.6 ± 1.9 | 104 ± 1.3 | 70.9 ± 2 |
| CN1[C@@H]2C[C@@H](OC(=O)[C@H](CO)c3ccccc3)C[C@H]1[C@@H]1O[C@@H]12 [Scopolamine hydrobromide] | 127 ± 2.7 | 119 ± 5.9 | 120 ± 2.6 | 112 ± 1.9 | 115.3 ± 1.1 | 108 ± 3.8 | 102 ± 4 | 99.3 ± 2 | 96.3 ± 2.5 | 99.3 ± 1.4 | 100 ± 2.1 | 102 ± 1.5 |
| NC(=O)c1ccc(-c2nc(-c3ccccn3)c(-c3ccc4c(c3)OCO4)[nH]2)cc1 | 111 ± 2.5 | 116 ± 1.5 | 114.2 ± 0.63 | 117 ± 3.9 | 112.6 ± 1 | 106.7 ± 0.3 | 102 ± 3.6 | 108.5 ± 0.46 | 111 ± 4.9 | 98.44 ± 0.36 | 98.1 ± 1.6 | 94.07 ± 0.91 |
| COc1ccc([C@H]2CNC(=O)C2)cc1OC1CCCC1 [S-(+)-Rolipram] | 101 ± 4.1 | 102 ± 1.8 | 102 ± 3.9 | 101 ± 2.3 | 96.742 ± 0.089 | 103.39 ± 0.018 | 103 ± 5.1 | 100 ± 2 | 104 ± 3.3 | 104 ± 2.8 | 104 ± 3.2 | 106 ± 2.3 |
| Cc1cc(C(C)(C)C)c(O)c(C)c1CC1=NCCN1 [Oxymetazoline HCl] | 120 ± 4.5 | 116 ± 4.1 | 112 ± 2 | 107 ± 4.2 | 113.2 ± 0.75 | 103 ± 2.8 | 99.9 ± 0.63 | 96.5 ± 1.5 | 99.3 ± 6 | 98.5 ± 5 | 103 ± 4.4 | 98.8 ± 3.1 |
| CN(C)Cc1cccc(N/C(=C2\C(=O)Nc3cc(C(N)=O)ccc32)c2ccccc2)c1 | 103 ± 1.7 | 107 ± 0.88 | 104 ± 2 | 103 ± 2.6 | 99.92 ± 0.15 | 87.26 ± 0.14 | 99.8 ± 1.5 | 97.2 ± 1.9 | 99.2 ± 1.1 | 97.28 ± 0.78 | 92.4 ± 6.5 | 84.9 ± 2.5 |
| CC(C)OC(=O)C1=CN(C(=O)c2ccc(F)c(F)c2)CC(C)(C)c2c1[nH]c1ccccc21 | 111 ± 1.3 | 106.3 ± 0.78 | 104 ± 1.6 | 102 ± 6.7 | 101 ± 2.5 | 101 ± 3.1 | 102.7 ± 0.95 | 104 ± 1.7 | 98.4 ± 1.8 | 99 ± 2.6 | 94.1 ± 5.9 | 99.22 ± 0.99 |
| CN(C)Cc1cccc(N=C(c2ccccc2)c2c(O)[nH]c3cc(C(=O)N(C)C)ccc23)c1 | 107 ± 1.5 | 106 ± 1.2 | 102 ± 1.4 | 100.76 ± 0.028 | 98.5 ± 6.6 | 93.3 ± 1.4 | 98.05 ± 0.44 | 99.6 ± 1.7 | 98.8 ± 1.2 | 99.48 ± 0.73 | 91.7 ± 5.7 | 47.4 ± 2.2 |
| COc1cc2c(N3CCN(C(=O)Nc4ccc(OC(C)C)cc4)CC3)ncnc2cc1OCCCN1CCCCC1 [Tandutinib (MLN518)] | 107 ± 3.1 | 97.9 ± 4.1 | 99.7 ± 0.23 | 96.6 ± 3 | 98.2 ± 3.4 | 80 ± 2.4 | 99.4 ± 1.1 | 99.87 ± 0.96 | 101 ± 2.1 | 101 ± 1.9 | 99.31 ± 0.29 | 83.4 ± 1.2 |
| Cc1cc(C(=O)NOCCO)c(Nc2ccc(I)cc2F)n(C)c1=O [AZD8330] | 103 ± 1.4 | 102 ± 2.7 | 99.3 ± 1.3 | 96.05 ± 0.59 | 65.9 ± 1.7 | 58.5 ± 0.66 | 101.1 ± 0.99 | 92.9 ± 1.4 | 93.3 ± 1.4 | 93.1 ± 2.1 | 76.3 ± 0.95 | 68.4 ± 0.99 |
| NC1(c2ccc(-c3nc4ccn5c(=O)[nH]nc5c4cc3-c3ccccc3)cc2)CCC1 [MK-2206] | 102.1 ± 0.84 | 102 ± 4.5 | 101 ± 2.4 | 98.62 ± 0.66 | 95.7 ± 1.4 | 59 ± 3.6 | 79.7 ± 4.3 | 81.98 ± 0.32 | 79.4 ± 1.1 | 77.6 ± 1.3 | 74 ± 2.4 | 25.2 ± 3.4 |
| COc1cccc2c1C(=O)c1c(O)c3c(c(O)c1C2=O)C[C@@](O)(C(=O)CO)C[C@@H]3O[C@H]1C[C@H](N)[C@H](O)[C@H](C)O1 [Adriamycin] | 102 ± 2 | 93.5 ± 5.5 | 71.1 ± 1.7 | 65.1 ± 2.7 | 17.4 ± 2.1 | 5.59 ± 0.56 | 102.4 ± 0.79 | 103 ± 1.9 | 87.9 ± 3.1 | 60.3 ± 1.4 | 13.01 ± 0.075 | 12 ± 0.24 |
| CCC1=C[C@@H]2CN(C1)Cc1c([nH]c3ccccc13)[C@@](C(=O)OC)(c1cc3c(cc1OC)N(C)[C@H]1[C@@](O)(C(=O)OC)[C@H](OC(C)=O)[C@]4(CC)C=CCN5CC[C@@]31[C@H]54)C2 [Vinorelbine(Navelbine)] | 51.2 ± 1.2 | 41.4 ± 1.7 | 44.2 ± 2.1 | 38.08 ± 0.27 | 36.28 ± 0.14 | 27.51 ± 0.032 | 50.3 ± 2.2 | 37.9 ± 1.1 | 39 ± 0.6 | 31.2 ± 0.92 | 29.86 ± 0.072 | 24.6 ± 0.88 |
| Nc1nc(=O)[nH]cc1F [Flucytosine (Ancobon)] | 92.9 ± 2.9 | 99.4 ± 1.2 | 103.85 ± 0.042 | 102.2 ± 0.19 | 98.4 ± 4.1 | 92.5 ± 3.2 | 105.5 ± 0.24 | 101 ± 3.4 | 104.5 ± 0.84 | 106 ± 1.2 | 103 ± 1.4 | 98.9 ± 4.4 |
| C=CC(=O)Nc1cccc(Sc2nc(Nc3ccc(N4CCN(C)CC4)cc3)ncc2Cl)c1 [WZ8040] | 98.7 ± 3.8 | 97.6 ± 2.1 | 99.3 ± 3.3 | 95.9 ± 1.6 | 98 ± 3.3 | 17.7 ± 4.6 | 100 ± 1.2 | 100 ± 1.6 | 99.8 ± 1.3 | 100 ± 1.5 | 100.6 ± 0.89 | 14.9 ± 0.36 |
| Cc1csc(-c2nnc(Nc3ccc(Oc4ncccc4-c4ccnc(N)n4)cc3)c3ccccc23)c1 [AMG900] | 84.8 ± 2 | 74.8 ± 1.5 | 75.4 ± 0.76 | 83.24 ± 0.43 | 78.91 ± 0.56 | 76 ± 2.4 | 88.9 ± 4.5 | 77.64 ± 0.67 | 71.5 ± 4.7 | 77.7 ± 1.1 | 65.8 ± 2.5 | 73.6 ± 1.5 |
| COC(=O)Nc1ccc(-c2nc(N3CCOCC3)c3cnn(C4CCN(Cc5cccnc5)CC4)c3n2)cc1 [WYE-687] | 97.311 ± 0.046 | 102 ± 3 | 99.7 ± 1.4 | 100 ± 2.7 | 59.1 ± 2.8 | 16.2 ± 0.8 | 113 ± 3.9 | 115.4 ± 1.1 | 113 ± 1.5 | 104 ± 2.3 | 55.5 ± 0.9 | 23.1 ± 0.089 |
